Active and inactive are the calls of the source. Some results are limits rather than exact numbers.

Experimental findings from ChEMBL document CHEMBL3217667, “Extended side chain analogues of 8-aminoquinolines: Synthesis and evaluation of antiprotozoal, antimicrobial, -hematin inhibition, and cytotoxic activities” (Medchemcomm, 2011) are described below.

Data set [1] in a line: Inhibition of beta-hematin formation after 16 hrs. The class given is physicochemical.
Data set [2] relates to Vero. Nature of the data set: Cytotoxicity against African green monkey Vero cells by neutral red uptake assay. The note with it: Chlorocebus sabaeus. In kind it is cell-based.
In data set [3] the test system is Plasma. The data set can be described thus: Half life in human plasma. The class given is ADME, cell-free.
Data set [4] concerns Leishmania donovani. The data set can be described thus: Antileishmanial activity against Leishmania donovani promastigotes by Alamar Blue assay. In kind it is functional, organism-based. For orientation: Alamar Blue is a resazurin reagent that responds to reducing activity.
Data set [5] has as its system Plasmodium berghei. The data set can be described thus: Antimalarial activity against Plasmodium berghei infected in mouse assessed as reduction in parasitemia at 100 mg/kg/day, po for 4 days measured up to day 14. The class given is functional. On the set-up: scale not given: the % may be the effect or the level left.
Data set [6] has as its system Pichia kudriavzevii. Nature of the data set: Antifungal activity against Candida krusei by broth microdilution assay. In kind it is functional, organism-based. In general terms: Dilution methods test growth across graded concentrations, often in twofold steps.
The subject of data set [7] is Plasmodium berghei. The data set can be described thus: Antimalarial activity against Plasmodium berghei infected in mouse assessed as reduction in parasitemia at 100 mg/kg/day, po for 4 days measured up to day 60 relative to control. In kind it is functional. On the set-up: scale not given: the % may be the effect or the level left.
In data set [8] the test system is Mycobacterium intracellulare. The data set can be described thus: Antibacterial activity against Mycobacterium intracellulare up to 20 ug/ml. In kind it is functional, organism-based.
Data set [9] deals with Plasmodium berghei. Nature of the data set: Antimalarial activity against Plasmodium berghei infected in mouse assessed as reduction in parasitemia at 25 mg/kg/day, po for 4 days measured up to day 60 relative to control. The class given is functional. On the set-up: scale not given: the % may be the effect or the level left.
For data set [10], the system named is LLC-PK1. Nature of the data set: Cytotoxicity against pig LLC-PK1 cells by neutral red uptake assay. In kind it is cell-based. The note with it: Sus scrofa.
Data set [11] deals with Plasmodium falciparum. The data set can be described thus: Antimalarial activity against chloroquine-sensitive Plasmodium falciparum D6 by lactate dehydrogenase assay. The class given is functional, organism-based. The note with it: Plasmodium falciparum, D6; read-out: IC50.
The subject of data set [12] is Plasmodium berghei. The data set can be described thus: Antimalarial activity against Plasmodium berghei infected in mouse assessed as reduction in parasitemia at 10 mg/kg/day, po for 4 days measured up to day 7. In kind it is functional, organism-based.
In data set [13] the test system is Plasmodium berghei. The data set can be described thus: Antimalarial activity against Plasmodium berghei infected in mouse assessed as reduction in parasitemia at 50 mg/kg/day, po for 4 days measured up to day 60 relative to control. On the set-up: scale not given: the % may be the effect or the level left. In kind it is functional.
The test system of data set [14] is KB. Nature of the data set: Cytotoxicity against human KB cells by neutral red uptake assay. In kind it is cell-based.
In data set [15] the test system is Plasmodium falciparum. The data set can be described thus: Antimalarial activity against chloroquine-resistant Plasmodium falciparum W2 by lactate dehydrogenase assay. In kind it is functional, organism-based. The note with it: Plasmodium falciparum, W2; read-out: IC50.
In data set [16] the test system is SK-MEL. Nature of the data set: Cytotoxicity against human SK-MEL cells by neutral red uptake assay. In kind it is cell-based.
Data set [17] in a line: Selectivity index, ratio of IC50 for African green monkey Vero cells to IC50 for chloroquine-sensitive Plasmodium falciparum D6. In kind it is toxicity, cell-based. The note with it: read-out: Ratio IC50.
Data set [18] relates to Staphylococcus aureus. Nature of the data set: Antibacterial activity against methicillin-resistant Staphylococcus aureus up to 20 ug/ml. In kind it is functional, organism-based.
Data set [19] deals with Aspergillus fumigatus. Nature of the data set: Antifungal activity against Aspergillus fumigatus by broth microdilution assay. The class given is functional, organism-based.
Data set [20] relates to Escherichia coli. The data set can be described thus: Antibacterial activity against Escherichia coli. In kind it is functional, organism-based.
The test system of data set [21] is SK-OV-3. The data set can be described thus: Cytotoxicity against human SKOV3 cells by neutral red uptake assay. The class given is cell-based.
Data set [22] relates to Cryptococcus neoformans. The data set can be described thus: Antifungal activity against Cryptococcus neoformans up to 20 ug/ml by broth microdilution assay. In kind it is functional, organism-based.
In data set [23] the test system is Pseudomonas aeruginosa. The data set can be described thus: Antibacterial activity against Pseudomonas aeruginosa. In kind it is functional, organism-based.
Data set [24] has as its system Nakaseomyces glabratus. The data set can be described thus: Antifungal activity against Candida glabrata by broth microdilution assay. In kind it is functional, organism-based.
Data set [25] deals with BT-549. Nature of the data set: Cytotoxicity against human BT549 cells by neutral red uptake assay. In kind it is cell-based.
Data set [26] relates to Candida albicans. The data set can be described thus: Antifungal activity against Candida albicans by broth microdilution assay. In kind it is functional, organism-based.
Data set [27] is described as follows: Selectivity index, ratio of IC50 for African green monkey Vero cells to IC50 for chloroquine-resistant Plasmodium falciparum W2. The note with it: read-out: Ratio IC50. In kind it is toxicity, cell-based.
For data set [28], the system named is Staphylococcus aureus. The data set can be described thus: Antibacterial activity against Staphylococcus aureus. The class given is functional, organism-based.
Data set [29] relates to Staphylococcus aureus. Nature of the data set: Antibacterial activity against methicillin-resistant Staphylococcus aureus. The class given is functional, organism-based.
The test system of data set [30] is Staphylococcus aureus. Nature of the data set: Antibacterial activity against Staphylococcus aureus up to 20 ug/ml. The class given is functional, organism-based.
Data set [31] concerns Cryptococcus neoformans. Nature of the data set: Antifungal activity against Cryptococcus neoformans by broth microdilution assay. In kind it is functional, organism-based.
Data set [32] relates to Mycobacterium intracellulare. Nature of the data set: Antibacterial activity against Mycobacterium intracellulare. The class given is functional, organism-based.

As to `COc1cc(NC(C)CCCN)c2ncccc2c1` (centres undefined) [PRIMAQUINE], the IC50 (commonly the concentration needed to halve the response being measured) was more than 1000 µM in [1] and more than 23.8 µg/mL in data set [2]. The same molecule had a t1/2 in data set [3] of 4 h. The IC90 (as a rule, the point of the concentration-response curve where the effect stands at 90%) in data set [4] is “inactive”.
As for `COc1cc(NC(C)CCCNC(C)CCCNC(C)CCCN)c2ncccc2c1.Cl` (centres undefined), the IC50 in [1] was 75 µM; in [10], more than 23.8 µg/mL; in data set [11], 2.6 µg/mL; in [2], more than 23.8 µg/mL; in [14], more than 23.8 µg/mL; in data set [15], 1.5 µg/mL. For the same molecule, the IC50 in [16] was more than 23.8 µg/mL; in [21], more than 23.8 µg/mL; in [4] it was 4.2 µg/mL; in data set [25], more than 23.8 µg/mL. The Activity in [5], in [7], in data set [9] and in [13] was 100% in each case. The result in data set [6], in [8], in data set [18], in data set [19], in data set [20] and in [22] was inactive. Besides, the outcome in data set [23], in data set [24] and in data set [26] was inactive. Moreover, in [12], the outcome was Active. Further, the selectivity ratio was more than 9.1 in data set [17] and more than 15.8 in data set [27]. Moreover, it took 40 µg/mL to reach the 90% level in data set [4] (IC90).
With `CCCCCCCCOc1c(OC)cc(NC(C)CCCNC(C)CCCN)c2nccc(CC)c12.Cl` (centres undefined), the IC50 is 14.5 µg/mL in data set [28]; 10.4 µg/mL in [29]; 15.7 µM in data set [1]; more than 23.8 µg/mL in [10]; 0.92 µg/mL in data set [11]; 8.5 µg/mL in [31]. Besides, the IC50 in [2] was more than 23.8 µg/mL; in data set [14], more than 23.8 µg/mL; in [15], 0.82 µg/mL; in data set [16], more than 23.8 µg/mL; in [32], more than 20 µg/mL; in data set [21], more than 23.8 µg/mL. Besides, the half-inhibitory concentration (IC50) in [4] was 17 µg/mL; in [25] it was more than 23.8 µg/mL. For the same molecule, in data set [29], the MBC – broadly, the smallest concentration meeting the test's criterion for killing – was 20 µg/mL. In addition, the MIC in [29] and in data set [31] was 20 µg/mL in each case. Also, the outcome in data set [30], in data set [5], in [6], in [8], in data set [19] and in [20] was inactive. Also, the result in [23], in data set [24] and in data set [26] was inactive. Further, in [31], the MFC (as a rule, the lowest tested concentration that kills the fungus rather than only halting it) came to 20 µg/mL. In addition, the results for the selectivity ratio in data set [17] and in data set [27] were more than 25.8 and more than 29, respectively. Besides, it took 32 µg/mL to reach the 90% level in data set [4] (IC90).
`COc1cc(NC(C)CCCNC(C)CCCN)c2ncccc2c1.Cl` (centres undefined): the IC50 in data set [1] was 18.5 µM; in data set [10], more than 23.8 µg/mL; in data set [11], 0.57 µg/mL; in data set [2], more than 23.8 µg/mL; in [14], more than 23.8 µg/mL; in data set [15], 0.8 µg/mL. The IC50 in [16] was more than 23.8 µg/mL; in data set [32], 10 µg/mL; in data set [21] it was more than 23.8 µg/mL; in data set [4] it was 32 µg/mL; in data set [25] it was more than 23.8 µg/mL. Also, the Activity in data set [5], in data set [7], in data set [9] and in data set [13] was 100% throughout. Besides, the outcome in data set [6], in data set [8], in [18], in [19], in data set [20] and in [22] was inactive. For the same molecule, the result in data set [23], in data set [24] and in data set [26] was inactive. In data set [12], the outcome was Active. The selectivity ratio in [17] was more than 41.7; in data set [27], more than 29.7. In addition, in [4], the IC90 result is “inactive”.
